Assay results as given in the supplement of paper PMC11451515.

How the values were obtained:
Conditions in all cases: 48 h
[1] = test system: SEM cells; assay: cell viability relative to DMSO control; higher = less cytotoxic
Outline: (§1)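 Before seeding, each leukemia line was adapted for at least four passages in each medium. NOMO1 or SEM cells (500 cells/well) and P12-Ichikawa cells (1000 cells/well) went into 1536-well plates at 5 μl, then received library compounds in DMSO by pin dosing across 11 threefold concentrations, 47 μM to 0.79 nM. Readout was CellTiter-Glo One luminescence after 48 h at 37°C, and viability is given as a per-plate percentage of DMSO wells, with cell-free wells as background.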

[2] = test system: P12-Ichikawa; assay: as above
Outline: as §1

[3] = test system: SEM cells; assay: AUC of viability dose-response curve (% viability x log10 dose units); higher = less sensitive
Outline: (§2)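 Seeding of medium-adapted leukemia cells was at 500 or 1000 cells/well in 1536-well plates, followed by 48 h at 37°C with library compounds in DMSO at 11 threefold doses from 47 μM to 0.79 nM. CellTiter-Glo One luminescence was normalised per plate to DMSO and cell-free wells and fitted as a four-parameter log-logistic function of log10 dose. Area under the curve was integrated by trapezoidal rule, with curves exceeding full viability scaled and curves failing quality control removed.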

[4] = test system: NOMO1; assay: as above
Outline: as §2

[5] = test system: P12-Ichikawa; assay: as above
Outline: as §2

COc1cc(C(=O)N2CC[C@@H](O)[C@@H](N)C2)cc2nc(-c3cc4ccccc4n3CC3CC3)n(C)c12
cell viability [%]
Conditions | [1] | [2]
HPLM + 10% dialyzed FBS, 0.000781 µM | 97.9 | 117
HPLM + 10% dialyzed FBS, 0.00234 µM | 118 | 116
HPLM + 10% dialyzed FBS, 0.00702 µM | 116 | 123
HPLM + 10% dialyzed FBS, 0.0211 µM | 124 | 121
HPLM + 10% dialyzed FBS, 0.0632 µM | 119 | 121
HPLM + 10% dialyzed FBS, 0.19 µM | 117 | 44.3
HPLM + 10% dialyzed FBS, 0.569 µM | 124 | 31
HPLM + 10% dialyzed FBS, 1.71 µM | 51.1 | 27.5
HPLM + 10% dialyzed FBS, 5.12 µM | 28.6 | 29
HPLM + 10% dialyzed FBS, 15.4 µM | 27.4 | 23.8
HPLM + 10% dialyzed FBS, 46.1 µM | 20.1 | 18.6
RPMI 5 mM glucose + 10% FBS, 0.000781 µM | – | 119
RPMI 5 mM glucose + 10% FBS, 0.00234 µM | – | 127
RPMI 5 mM glucose + 10% FBS, 0.00702 µM | – | 123
RPMI 5 mM glucose + 10% FBS, 0.0211 µM | – | 122
RPMI 5 mM glucose + 10% FBS, 0.0632 µM | – | 137
RPMI 5 mM glucose + 10% FBS, 0.19 µM | – | 117
RPMI 5 mM glucose + 10% FBS, 0.569 µM | – | 111
RPMI 5 mM glucose + 10% FBS, 1.71 µM | – | 33.4
RPMI 5 mM glucose + 10% FBS, 5.12 µM | – | 25.9
RPMI 5 mM glucose + 10% FBS, 15.4 µM | – | 21.5
RPMI 5 mM glucose + 10% FBS, 46.1 µM | – | 11.2

AUC of viability dose-response curve
Conditions | [3] | [4] | [5]
HPLM + 10% dialyzed FBS | 357 | 294 | 279
RPMI 5 mM glucose + 10% FBS | 276 | 327 | 336
RPMI 5 mM glucose + 10% dialyzed FBS | 335 | 338 | 324

COc1ccc2c(c1)CN(C)CC2c1ccc(Cl)c(Cl)c1 (stereo unspecified)
cell viability [%]
Conditions | HPLM + 10% dialyzed FBS | RPMI 5 mM glucose + 10% FBS | RPMI 5 mM glucose + 10% dialyzed FBS
[1], 0.000781 µM | 78 | 95.5 | 89.2
[1], 0.00234 µM | 104 | 112 | 109
[1], 0.00702 µM | 121 | 140 | 133
[1], 0.0211 µM | 102 | 108 | 104
[1], 0.0632 µM | 122 | 136 | 138
[1], 0.19 µM | 109 | 136 | 168
[1], 0.569 µM | 133 | 131 | 157
[1], 1.71 µM | 117 | 123 | 150
[1], 5.12 µM | 126 | 128 | 143
[1], 15.4 µM | 117 | 125 | 141
[1], 46.1 µM | 58.7 | 74.5 | 109
[2], 0.000781 µM | 128 | – | –
[2], 0.00234 µM | 121 | – | –
[2], 0.00702 µM | 125 | – | –
[2], 0.0211 µM | 125 | – | –
[2], 0.0632 µM | 134 | – | –
[2], 0.19 µM | 133 | – | –
[2], 0.569 µM | 125 | – | –
[2], 1.71 µM | 123 | – | –
[2], 5.12 µM | 133 | – | –
[2], 15.4 µM | 131 | – | –
[2], 46.1 µM | 116 | – | –

AUC of viability dose-response curve
Conditions | [3] | [4] | [5]
HPLM + 10% dialyzed FBS | 465 | 430 | 475
RPMI 5 mM glucose + 10% FBS | 467 | 463 | 471
RPMI 5 mM glucose + 10% dialyzed FBS | 443 | 437 | 461

CCCN1CCO[C@@H]2c3cc(O)ccc3OC[C@H]21
cell viability [%], HPLM + 10% dialyzed FBS
Conditions | [1] | [2]
0.000781 µM | 120 | 125
0.00234 µM | 123 | 123
0.00702 µM | 135 | 128
0.0211 µM | 112 | 120
0.0632 µM | 122 | 120
0.19 µM | 118 | 118
0.569 µM | 105 | 113
1.71 µM | 103 | 114
5.12 µM | 68.4 | 114
15.4 µM | 99.7 | 101
46.1 µM | 48.1 | 12.1

AUC of viability dose-response curve
Conditions | [3] | [4] | [5]
HPLM + 10% dialyzed FBS | 406 | 451 | 448
RPMI 5 mM glucose + 10% FBS | 424 | 456 | 446
RPMI 5 mM glucose + 10% dialyzed FBS | 433 | 456 | 441

Cc1cnc(Nc2ccc(F)cc2Cl)nc1-c1c[nH]c(C(=O)N[C@H](CO)c2cccc(Cl)c2)c1
[1], HPLM + 10% dialyzed FBS
Conditions | cell viability [%]
0.000781 µM | 109
0.00234 µM | 125
0.00702 µM | 114
0.0211 µM | 137
0.0632 µM | 126
0.19 µM | 134
0.569 µM | 134
1.71 µM | 125
5.12 µM | 136
15.4 µM | 121
46.1 µM | 84.9

AUC of viability dose-response curve
Conditions | [3] | [4] | [5]
HPLM + 10% dialyzed FBS | 467 | 353 | 389
RPMI 5 mM glucose + 10% FBS | 452 | 335 | 384
RPMI 5 mM glucose + 10% dialyzed FBS | 443 | 364 | 411

CCCCC(C)(C)[C@H](O)/C=C/[C@H]1[C@H](O)CC(=O)[C@@H]1C/C=C\CCCC(=O)O
[1], RPMI 5 mM glucose + 10% FBS
Conditions | cell viability [%]
0.000781 µM | 101
0.00234 µM | 123
0.00702 µM | 131
0.0211 µM | 120
0.0632 µM | 119
0.19 µM | 137
0.569 µM | 117
1.71 µM | 130
5.12 µM | 51.5
15.4 µM | 78.2
46.1 µM | 13.4

AUC of viability dose-response curve
Conditions | [3] | [4] | [5]
HPLM + 10% dialyzed FBS | 401 | 437 | 447
RPMI 5 mM glucose + 10% FBS | 407 | 453 | 437
RPMI 5 mM glucose + 10% dialyzed FBS | 403 | 431 | 442

O=c1cc(-c2ccc(O)c(O)c2)oc2cc(O)cc(O)c12
[1], HPLM + 10% dialyzed FBS
Conditions | cell viability [%]
0.000781 µM | 107
0.00234 µM | 113
0.00702 µM | 126
0.0211 µM | 127
0.0632 µM | 134
0.19 µM | 134
0.569 µM | 142
1.71 µM | 152
5.12 µM | 156
15.4 µM | 129
46.1 µM | 129

AUC of viability dose-response curve
Conditions | [3] | [4] | [5]
HPLM + 10% dialyzed FBS | 449 | 458 | 473
RPMI 5 mM glucose + 10% FBS | 454 | 461 | 464
RPMI 5 mM glucose + 10% dialyzed FBS | 459 | 461 | 467
